Laboratory results taken from USRE48335E1, “Polymyxin derivatives as antimicrobial compounds” (priority 2014, dated 2020).
≈ marks a conversion by molar mass, not a printed value. Where two headings read alike, the source gives them in different places. Positions of bridges follow the written chain, without caps; N, C: chain ends. Non-standard residues stand in square brackets, D forms with d. Residues, ends and D or L forms follow the SMILES beside them. *: point of attachment. Phenylacetyl(3-Cl) = O=C(Cc1cccc(Cl)c1)*; Phenylacetyl(4-Cl) = O=C(Cc1ccc(Cl)cc1)*; X13 = O=C(Cc1ccc(Cl)cc1Cl)*; X22 = CC(C)c1ccc(C(=O)*)cc1; Nonanoyl = CCCCCCCCC(=O)*; X14 = Cc1ccc(C(=O)*)cc1C; Dab = NCC[C@H](N)C(=O)O; Abu = CC[C@H](N)C(=O)O; Dap = NC[C@H](N)C(=O)O

Columns and labels:
P. aeruginosa ATCC 27853 = experiment: In vivo efficacy in mouse blood infection model (neutropenic Swiss mice); conditions: compound, free base 4 mg/kg intravenously 2 h after inoculation, blood at 4 h
Protocol: P. aeruginosa ATCC 27853, A. baumannii ATCC 19606 and K. pneumoniae FADDI-KP032 were subcultured on nutrient agar plates. One colony of each bacterial strain was dispersed in 10-mL CAMHB and incubated overnight. On day 2, an aliquot (0.2 mL) of each overnight culture suspension was dispersed in 20-mL CAMHB and incubated for 1.5-2.5 h for production of early log-phase growth bacterial culture. The bacteria in the early log-phase growth suspension were concentrated by centrifugation (3,220 g for 10 min) and re-suspended in sterile 0.9% saline for inoculation into mice. The bacterial cell concentration (colony forming unit [CFU]/mL) in saline was estimated by determining the optical density (OD) of the suspension at 600 nm, and confirmed by plating the suspension on nutrient agar plates. Swiss mice (22 to 28 g) were rendered neutropenic by injecting two doses of cyclophosphamide intraperitoneally, −4 day (150 mg/kg) and −1 day (100 mg/kg) prior to inoculation. Bloodstream infection was established by injecting intravenously 50 μL of early log-phase bacterial suspension (10^8-10^9 CFU/mL). The exact injection volume for each bacterial suspension was calculated based upon the OD value of the bacterial suspension and the desired inoculum for each isolate.
Solutions for administration of colistin, polymyxin B or the compounds were prepared at a concentration of 1 mg (free base) per mL in sterile 0.9% saline. At 2 h after inoculation, a mouse in the treatment groups was injected intravenously with one of the above solutions at 4 μL/g body weight (BW) (i.e. free base 4 mg/kg BW), while the same volume of saline was injected into the control mice. At 0 h or at 4 h after the administration of antibacterial drug or saline (control), animals were euthanised by inhalation of overdose isoflurane. The skin on the chest and fore-paws of each animal was thoroughly cleansed with 70% ethanol and Betadine®. The blood was collected via cardiac puncture using a 1-mL syringe rinsed with heparin (5,000 IU/mL), diluted serially in sterile 0.9% saline and plated on nutrient agar plates using a spiral plater.
The agar plates were incubated at 37° C. overnight. The bacterial colonies on the plate were counted and CFU/mL of the blood was calculated. The log10 CFU/mL of blood in each mouse was calculated. The in vivo activity of the compounds against the bacteria was calculated as the difference of the log10 CFU/mL values between the treated mice and the control mice at 4 h (Δ log=log10 (treated)CFU/mL−log10 (control)CFU/mL).
Any compound showing a decrease in bacterial loading (Δ log) of ≥2 at 4 h is considered to have good in vivo efficacy in this initial screening model.

Klebsiella pneumoniae = tested on: Klebsiella pneumoniae
In short: (§1)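 Minimum inhibitory concentrations come from CLSI-standard broth microdilution in cation-adjusted Mueller-Hinton broth.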

Enterobacter cloacae = tested on: Enterobacter cloacae
In short: as §1

Pseudomonas aeruginosa = tested on: Pseudomonas aeruginosa
In short: as §1

Acinetobacter baumannii = tested on: Acinetobacter baumannii
In short: as §1

| SMILES | Δ log (Treated-Control at 4 h) (P. aeruginosa ATCC 27853) | MIC (Klebsiella pneumoniae) | Minimum inhibitory concentration, Ec FADDI-EC001 (Enterobacter cloacae) | Minimum inhibitory concentration, Ec FADDI-EC003 (Enterobacter cloacae) | Minimum inhibitory concentration, Ec FADDI-EC006 (Enterobacter cloacae) | MIC (Pseudomonas aeruginosa) | Minimum inhibitory concentration, Pa ATCC 27853 (Pseudomonas aeruginosa) | Minimum inhibitory concentration, Pa FADDI-PA022 (Pseudomonas aeruginosa) | Minimum inhibitory concentration, Pa FADDI-PA025 (Pseudomonas aeruginosa) | MIC (Acinetobacter baumannii) | Minimum inhibitory concentration, Ab A ATCC 17978 (Acinetobacter baumannii) | Minimum inhibitory concentration, Ab ATCC 19606 (Acinetobacter baumannii) | Minimum inhibitory concentration, Ab FADDI-AB034 (Acinetobacter baumannii) | also measured |
| --- | --- | --- | --- | --- | --- | --- | --- | --- | --- | --- | --- | --- | --- | --- |
| CCCCCCCCC(=O)N[C@@H](CCN)C(=O)N[C@H](C(=O)N[C@@H](CN)C(=O)N[C@H]1CCNC(=O)[C@H]([C@@H](C)O)NC(=O)[C@H](CCN)NC(=O)[C@H](CCN)NC(=O)[C@H](CC)NC(=O)[C@@H](CC(C)C)NC(=O)[C@H](CCN)NC1=O)[C@@H](C)O [Compound 59] (Nonanoyl-[Dab]T[Dap][Dab][Dab][dL][Abu][Dab][Dab]T; lactam 4-C) | −2.82 log10 CFU/mL | <0.125 µg/mL | 1 µg/mL (≈ 0.887 µM) | 1 µg/mL (≈ 0.887 µM) | 0.5 µg/mL (≈ 0.443 µM) | 1 µg/mL (≈ 0.887 µM) | 1 µg/mL (≈ 0.887 µM) | 2 µg/mL (≈ 1.77 µM) | 2 µg/mL (≈ 1.77 µM) | 2 µg/mL (≈ 1.77 µM) | 1 µg/mL (≈ 0.887 µM) | 2 µg/mL (≈ 1.77 µM) | 0.5 µg/mL (≈ 0.443 µM) |  |
| CC(C)C[C@H]1NC(=O)[C@H](CCN)NC(=O)[C@@H](NC(=O)[C@H](CN)NC(=O)[C@@H](NC(=O)[C@H](CCN)NC(=O)Cc2cccc(Cl)c2)[C@@H](C)O)CCNC(=O)[C@H]([C@@H](C)O)NC(=O)[C@H](CCN)NC(=O)[C@H](CCN)NC(=O)[C@H]([C@@H](C)O)NC1=O [Compound 61] ({Phenylacetyl(3-Cl)}-[Dab]T[Dap][Dab][Dab][dL]T[Dab][Dab]T; lactam 4-C) | −4.75 log10 CFU/mL |  |  |  |  |  |  |  |  |  |  |  |  | MIC (Klebsiella pneumoniae; K. pneumoniae FADDI-KP032): 0.25 µg/mL (≈ 0.216 µM); Minimum inhibitory concentration, Ec FADDI-EC001 (Enterobacter cloacae; Enterobacter cloacae FADDI-EC001, broth microdilution in CAMHB): 0.25 µg/mL (≈ 0.216 µM); Minimum inhibitory concentration, Ec FADDI-EC003 (Enterobacter cloacae; Enterobacter cloacae FADDI-EC003, broth microdilution in CAMHB): 0.25 µg/mL (≈ 0.216 µM); Minimum inhibitory concentration, Ec FADDI-EC006 (Enterobacter cloacae; Enterobacter cloacae FADDI-EC006, broth microdilution in CAMHB): 0.25 µg/mL (≈ 0.216 µM); MIC (Pseudomonas aeruginosa; P. aeruginosa ATCC 27853): 0.5 µg/mL (≈ 0.433 µM); Minimum inhibitory concentration, Pa ATCC 27853 (Pseudomonas aeruginosa; Pseudomonas aeruginosa ATCC 27853, broth microdilution in CAMHB): 0.5 µg/mL (≈ 0.433 µM); Minimum inhibitory concentration, Pa FADDI-PA022 (Pseudomonas aeruginosa; Pseudomonas aeruginosa FADDI-PA022, broth microdilution in CAMHB): 0.5 µg/mL (≈ 0.433 µM); Minimum inhibitory concentration, Pa FADDI-PA025 (Pseudomonas aeruginosa; Pseudomonas aeruginosa FADDI-PA025, broth microdilution in CAMHB): >32 µg/mL; MIC (Acinetobacter baumannii; A. baumannii ATCC 19606): 4 µg/mL (≈ 3.46 µM); Minimum inhibitory concentration, Ab A ATCC 17978 (Acinetobacter baumannii; Acinetobacter baumannii ATCC 17978, broth microdilution in CAMHB): 2 µg/mL (≈ 1.73 µM); Minimum inhibitory concentration, Ab ATCC 19606 (Acinetobacter baumannii; Acinetobacter baumannii ATCC 19606, broth microdilution in CAMHB): 4 µg/mL (≈ 3.46 µM); Minimum inhibitory concentration, Ab FADDI-AB034 (Acinetobacter baumannii; Acinetobacter baumannii FADDI-AB034, broth microdilution in CAMHB): 1 µg/mL (≈ 0.865 µM) |
| CC(C)C[C@H]1NC(=O)[C@H](CCN)NC(=O)[C@@H](NC(=O)[C@H](CN)NC(=O)[C@@H](NC(=O)[C@H](CCN)NC(=O)Cc2ccc(Cl)cc2Cl)[C@@H](C)O)CCNC(=O)[C@H]([C@@H](C)O)NC(=O)[C@H](CCN)NC(=O)[C@H](CCN)NC(=O)[C@H]([C@@H](C)O)NC1=O [Compound 62] (X13-[Dab]T[Dap][Dab][Dab][dL]T[Dab][Dab]T; lactam 4-C) | −2.69 log10 CFU/mL | 0.25 µg/mL (≈ 0.21 µM) | <0.125 µg/mL | <0.125 µg/mL | 0.25 µg/mL (≈ 0.21 µM) | 0.5 µg/mL (≈ 0.42 µM) | 0.5 µg/mL (≈ 0.42 µM) | 1 µg/mL (≈ 0.84 µM) | 1 µg/mL (≈ 0.84 µM) | 2 µg/mL (≈ 1.68 µM) | 1 µg/mL (≈ 0.84 µM) | 2 µg/mL (≈ 1.68 µM) | 1 µg/mL (≈ 0.84 µM) |  |
| CC[C@@H]1NC(=O)[C@@H](CC(C)C)NC(=O)[C@H](CCN)NC(=O)[C@@H](NC(=O)[C@H](CN)NC(=O)[C@@H](NC(=O)[C@H](CCN)NC(=O)Cc2ccc(Cl)cc2Cl)[C@@H](C)O)CCNC(=O)[C@H]([C@@H](C)O)NC(=O)[C@H](CCN)NC(=O)[C@H](CCN)NC1=O [Compound 70] (X13-[Dab]T[Dap][Dab][Dab][dL][Abu][Dab][Dab]T; lactam 4-C) | −3.11 log10 CFU/mL | 0.25 µg/mL (≈ 0.213 µM) | 0.5 µg/mL (≈ 0.426 µM) | 0.25 µg/mL (≈ 0.213 µM) | 0.5 µg/mL (≈ 0.426 µM) | 1 µg/mL (≈ 0.852 µM) | 1 µg/mL (≈ 0.852 µM) | 1 µg/mL (≈ 0.852 µM) | 2 µg/mL (≈ 1.7 µM) | 0.5 µg/mL (≈ 0.426 µM) | 0.5 µg/mL (≈ 0.426 µM) | 0.5 µg/mL (≈ 0.426 µM) | 1 µg/mL (≈ 0.852 µM) |  |
| CC[C@@H]1NC(=O)[C@@H](CC(C)C)NC(=O)[C@H](CCN)NC(=O)[C@@H](NC(=O)[C@H](CN)NC(=O)[C@@H](NC(=O)[C@H](CCN)NC(=O)Cc2ccc(Cl)cc2)[C@@H](C)O)CCNC(=O)[C@H]([C@@H](C)O)NC(=O)[C@H](CCN)NC(=O)[C@H](CCN)NC1=O [Compound 77] ({Phenylacetyl(4-Cl)}-[Dab]T[Dap][Dab][Dab][dL][Abu][Dab][Dab]T; lactam 4-C) | −2.28 log10 CFU/mL | <0.125 µg/mL | 0.5 µg/mL (≈ 0.439 µM) | <0.125 µg/mL | 0.25 µg/mL (≈ 0.219 µM) | 0.25 µg/mL (≈ 0.219 µM) | 0.25 µg/mL (≈ 0.219 µM) | 0.5 µg/mL (≈ 0.439 µM) | 4 µg/mL (≈ 3.51 µM) | 4 µg/mL (≈ 3.51 µM) | 0.5 µg/mL (≈ 0.439 µM) | 4 µg/mL (≈ 3.51 µM) | 1 µg/mL (≈ 0.877 µM) |  |
| CC[C@@H]1NC(=O)[C@@H](CC(C)C)NC(=O)[C@H](CCN)NC(=O)[C@@H](NC(=O)[C@H](CN)NC(=O)[C@@H](NC(=O)[C@H](CCN)NC(=O)c2ccc(C)c(C)c2)[C@@H](C)O)CCNC(=O)[C@H]([C@@H](C)O)NC(=O)[C@H](CCN)NC(=O)[C@H](CCN)NC1=O [Compound 83] (X14-[Dab]T[Dap][Dab][Dab][dL][Abu][Dab][Dab]T; lactam 4-C) | −3.63 log10 CFU/mL | 0.25 µg/mL (≈ 0.223 µM) | 0.25 µg/mL (≈ 0.223 µM) | 0.25 µg/mL (≈ 0.223 µM) | 0.25 µg/mL (≈ 0.223 µM) | 1 µg/mL (≈ 0.893 µM) | 1 µg/mL (≈ 0.893 µM) | 1 µg/mL (≈ 0.893 µM) | 2 µg/mL (≈ 1.79 µM) | 2 µg/mL (≈ 1.79 µM) | 1 µg/mL (≈ 0.893 µM) | 2 µg/mL (≈ 1.79 µM) | 0.5 µg/mL (≈ 0.447 µM) |  |
| CC[C@@H]1NC(=O)[C@@H](CC(C)C)NC(=O)[C@H](CCN)NC(=O)[C@@H](NC(=O)[C@H](CN)NC(=O)[C@@H](NC(=O)[C@H](CCN)NC(=O)c2ccc(C(C)C)cc2)[C@@H](C)O)CCNC(=O)[C@H]([C@@H](C)O)NC(=O)[C@H](CCN)NC(=O)[C@H](CCN)NC1=O [Compound 99] (X22-[Dab]T[Dap][Dab][Dab][dL][Abu][Dab][Dab]T; lactam 4-C) | −3.21 log10 CFU/mL | 0.5 µg/mL (≈ 0.441 µM) | 0.25 µg/mL (≈ 0.221 µM) | 0.25 µg/mL (≈ 0.221 µM) | 0.5 µg/mL (≈ 0.441 µM) | 1 µg/mL (≈ 0.882 µM) | 1 µg/mL (≈ 0.882 µM) | 0.5 µg/mL (≈ 0.441 µM) | 2 µg/mL (≈ 1.76 µM) | 1 µg/mL (≈ 0.882 µM) | 0.25 µg/mL (≈ 0.221 µM) | 1 µg/mL (≈ 0.882 µM) | 0.25 µg/mL (≈ 0.221 µM) |  |
